Test results: PubChem BioAssay (NCI)
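Briefly, cells in 96-well plates were exposed to five compound concentrations for 48 h, and endpoints were estimated by linear interpolation. TGI denotes the concentration required for complete inhibition of growth.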

Legend:
Test in all cases: NCI tumour cell line growth inhibition, 48 h
786-0 renal = tested on: 786-0 renal
A498 renal = tested on: A498 renal
A549 NSCLC = tested on: A549 NSCLC
ACHN renal = tested on: ACHN renal
BT-549 breast = tested on: BT-549 breast
CAKI-1 renal = tested on: CAKI-1 renal
COLO 205 colon = tested on: COLO 205 colon
EKVX NSCLC = tested on: EKVX NSCLC
HCC-2998 colon = tested on: HCC-2998 colon
HCT-116 colon = tested on: HCT-116 colon
HCT-15 colon = tested on: HCT-15 colon
HOP-62 NSCLC = tested on: HOP-62 NSCLC
HOP-92 NSCLC = tested on: HOP-92 NSCLC
HS 578T breast = tested on: HS 578T breast
HT29 colon = tested on: HT29 colon
IGROV1 ovarian = tested on: IGROV1 ovarian
K-562 leukemia = tested on: K-562 leukemia
KM12 colon = tested on: KM12 colon
LOX IMVI melanoma = tested on: LOX IMVI melanoma
M14 melanoma = tested on: M14 melanoma
MALME-3M melanoma = tested on: MALME-3M melanoma
MCF7 breast = tested on: MCF7 breast
MDA-MB-231 breast = tested on: MDA-MB-231 breast
MDA-MB-435 = tested on: MDA-MB-435
MDA-N = tested on: MDA-N
MOLT-4 leukemia = tested on: MOLT-4 leukemia
NCI-H226 lung = tested on: NCI-H226 lung
NCI-H23 lung = tested on: NCI-H23 lung
NCI-H460 lung = tested on: NCI-H460 lung
NCI/ADR-RES ovarian = tested on: NCI/ADR-RES ovarian
OVCAR-3 ovarian = tested on: OVCAR-3 ovarian
OVCAR-4 ovarian = tested on: OVCAR-4 ovarian
OVCAR-5 ovarian = tested on: OVCAR-5 ovarian
OVCAR-8 ovarian = tested on: OVCAR-8 ovarian
PC-3 prostate = tested on: PC-3 prostate
RPMI-8226 leukemia = tested on: RPMI-8226 leukemia
SF-268 CNS = tested on: SF-268 CNS
SF-295 CNS = tested on: SF-295 CNS
SF-539 CNS = tested on: SF-539 CNS
SK-MEL-2 melanoma = tested on: SK-MEL-2 melanoma
SK-MEL-28 melanoma = tested on: SK-MEL-28 melanoma
SK-MEL-5 melanoma = tested on: SK-MEL-5 melanoma
SK-OV-3 ovarian = tested on: SK-OV-3 ovarian
SN12C renal = tested on: SN12C renal
SNB-19 CNS = tested on: SNB-19 CNS
SNB-75 CNS = tested on: SNB-75 CNS
SR leukemia = tested on: SR leukemia
SW-620 colon = tested on: SW-620 colon
T-47D breast = tested on: T-47D breast
TK-10 renal = tested on: TK-10 renal
U251 CNS = tested on: U251 CNS
UACC-257 melanoma = tested on: UACC-257 melanoma
UACC-62 melanoma = tested on: UACC-62 melanoma
UO-31 renal = tested on: UO-31 renal
CCRF-CEM leukemia = tested on: CCRF-CEM leukemia
DU-145 prostate = tested on: DU-145 prostate
HL-60(TB) leukemia = tested on: HL-60(TB) leukemia
NCI-H522 lung = tested on: NCI-H522 lung

SMILES: CCCCc1ccc(N2C(=O)c3cc([N+](=O)[O-])cnc3S2(=O)=O)cc1
- TGI (786-0 renal): > 100 µM
- TGI (A498 renal): > 100 µM
- TGI (A549 NSCLC): > 100 µM
- TGI (ACHN renal): > 100 µM
- TGI (BT-549 breast): > 100 µM
- TGI (CAKI-1 renal): > 100 µM
- TGI (COLO 205 colon): > 100 µM
- TGI (EKVX NSCLC): > 100 µM
- TGI (HCC-2998 colon): > 100 µM
- TGI (HCT-116 colon): > 100 µM
- TGI (HCT-15 colon): > 100 µM
- TGI (HOP-62 NSCLC): > 100 µM
- TGI (HOP-92 NSCLC): 8.03 µM
- TGI (HS 578T breast): > 100 µM
- TGI (HT29 colon): > 100 µM
- TGI (IGROV1 ovarian): > 100 µM
- TGI (K-562 leukemia): > 100 µM
- TGI (KM12 colon): > 100 µM
- TGI (LOX IMVI melanoma): > 100 µM
- TGI (M14 melanoma): > 100 µM
- TGI (MALME-3M melanoma): > 100 µM
- TGI (MCF7 breast): > 100 µM
- TGI (MDA-MB-231 breast): > 100 µM
- TGI (MDA-MB-435): > 100 µM
- TGI (MDA-N): > 100 µM
- TGI (MOLT-4 leukemia): > 100 µM
- TGI (NCI-H226 lung): > 100 µM
- TGI (NCI-H23 lung): > 100 µM
- TGI (NCI-H460 lung): > 100 µM
- TGI (NCI/ADR-RES ovarian): > 100 µM
- TGI (OVCAR-3 ovarian): > 100 µM
- TGI (OVCAR-4 ovarian): > 100 µM
- TGI (OVCAR-5 ovarian): > 100 µM
- TGI (OVCAR-8 ovarian): > 100 µM
- TGI (PC-3 prostate): > 100 µM
- TGI (RPMI-8226 leukemia): > 100 µM
- TGI (SF-268 CNS): > 100 µM
- TGI (SF-295 CNS): > 100 µM
- TGI (SF-539 CNS): > 100 µM
- TGI (SK-MEL-2 melanoma): 59 µM
- TGI (SK-MEL-28 melanoma): > 100 µM
- TGI (SK-MEL-5 melanoma): > 100 µM
- TGI (SK-OV-3 ovarian): > 100 µM
- TGI (SN12C renal): > 100 µM
- TGI (SNB-19 CNS): > 100 µM
- TGI (SNB-75 CNS): > 100 µM
- TGI (SR leukemia): > 100 µM
- TGI (SW-620 colon): > 100 µM
- TGI (T-47D breast): > 100 µM
- TGI (TK-10 renal): > 100 µM
- TGI (U251 CNS): > 100 µM
- TGI (UACC-257 melanoma): > 100 µM
- TGI (UACC-62 melanoma): > 100 µM
- TGI (UO-31 renal): > 100 µM

SMILES: COc1ccc(CCCNC(=O)Cc2ccccc2CO)cc1OC
- TGI (786-0 renal): > 100 µM
- TGI (A498 renal): > 100 µM
- TGI (A549 NSCLC): > 100 µM
- TGI (ACHN renal): > 100 µM
- TGI (BT-549 breast): > 100 µM
- TGI (CAKI-1 renal): > 100 µM
- TGI (CCRF-CEM leukemia): > 100 µM
- TGI (COLO 205 colon): > 100 µM
- TGI (DU-145 prostate): > 100 µM
- TGI (EKVX NSCLC): > 100 µM
- TGI (HCC-2998 colon): > 100 µM
- TGI (HCT-116 colon): > 100 µM
- TGI (HCT-15 colon): > 100 µM
- TGI (HL-60(TB) leukemia): > 100 µM
- TGI (HOP-62 NSCLC): > 100 µM
- TGI (HOP-92 NSCLC): > 100 µM
- TGI (HS 578T breast): > 100 µM
- TGI (HT29 colon): > 100 µM
- TGI (IGROV1 ovarian): > 100 µM
- TGI (K-562 leukemia): > 100 µM
- TGI (KM12 colon): > 100 µM
- TGI (LOX IMVI melanoma): > 100 µM
- TGI (M14 melanoma): > 100 µM
- TGI (MALME-3M melanoma): > 100 µM
- TGI (MDA-MB-231 breast): > 100 µM
- TGI (MDA-MB-435): > 100 µM
- TGI (MDA-N): > 100 µM
- TGI (MOLT-4 leukemia): > 100 µM
- TGI (NCI-H226 lung): > 100 µM
- TGI (NCI-H23 lung): > 100 µM
- TGI (NCI-H460 lung): > 100 µM
- TGI (NCI/ADR-RES ovarian): > 100 µM
- TGI (OVCAR-3 ovarian): > 100 µM
- TGI (OVCAR-4 ovarian): > 100 µM
- TGI (OVCAR-5 ovarian): > 100 µM
- TGI (OVCAR-8 ovarian): > 100 µM
- TGI (PC-3 prostate): > 100 µM
- TGI (SK-MEL-2 melanoma): > 100 µM
- TGI (SK-MEL-28 melanoma): > 100 µM
- TGI (SK-MEL-5 melanoma): > 100 µM
- TGI (SN12C renal): > 100 µM
- TGI (SNB-19 CNS): > 100 µM
- TGI (SNB-75 CNS): > 100 µM
- TGI (SR leukemia): > 100 µM
- TGI (SW-620 colon): > 100 µM
- TGI (T-47D breast): > 100 µM
- TGI (TK-10 renal): > 100 µM
- TGI (U251 CNS): > 100 µM
- TGI (UACC-257 melanoma): > 100 µM
- TGI (UACC-62 melanoma): > 100 µM
- TGI (UO-31 renal): > 100 µM

SMILES: CN(C)CCNC(=O)c1cccc(NC(=O)c2ccccc2)c1[N+](=O)[O-]
- TGI (786-0 renal): > 100 µM
- TGI (A498 renal): > 100 µM
- TGI (A549 NSCLC): > 100 µM
- TGI (ACHN renal): > 100 µM
- TGI (BT-549 breast): > 100 µM
- TGI (CAKI-1 renal): > 100 µM
- TGI (CCRF-CEM leukemia): > 100 µM
- TGI (COLO 205 colon): > 100 µM
- TGI (HCC-2998 colon): > 100 µM
- TGI (HCT-116 colon): > 100 µM
- TGI (HCT-15 colon): > 100 µM
- TGI (HL-60(TB) leukemia): > 100 µM
- TGI (HOP-62 NSCLC): > 100 µM
- TGI (HS 578T breast): > 100 µM
- TGI (HT29 colon): > 100 µM
- TGI (IGROV1 ovarian): > 100 µM
- TGI (KM12 colon): > 100 µM
- TGI (M14 melanoma): > 100 µM
- TGI (MALME-3M melanoma): 27.3 µM
- TGI (MCF7 breast): > 100 µM
- TGI (MDA-MB-231 breast): > 100 µM
- TGI (MDA-MB-435): > 100 µM
- TGI (MDA-N): > 100 µM
- TGI (MOLT-4 leukemia): > 100 µM
- TGI (NCI-H226 lung): > 100 µM
- TGI (NCI-H23 lung): > 100 µM
- TGI (NCI-H460 lung): > 100 µM
- TGI (NCI-H522 lung): > 100 µM
- TGI (NCI/ADR-RES ovarian): > 100 µM
- TGI (OVCAR-3 ovarian): 64.8 µM
- TGI (OVCAR-5 ovarian): > 100 µM
- TGI (OVCAR-8 ovarian): > 100 µM
- TGI (PC-3 prostate): > 100 µM
- TGI (SF-268 CNS): > 100 µM
- TGI (SF-295 CNS): > 100 µM
- TGI (SK-MEL-2 melanoma): > 100 µM
- TGI (SK-MEL-28 melanoma): > 100 µM
- TGI (SK-MEL-5 melanoma): > 100 µM
- TGI (SK-OV-3 ovarian): > 100 µM
- TGI (SN12C renal): > 100 µM
- TGI (SNB-19 CNS): > 100 µM
- TGI (SNB-75 CNS): > 100 µM
- TGI (SW-620 colon): > 100 µM
- TGI (T-47D breast): > 100 µM
- TGI (TK-10 renal): > 100 µM
- TGI (U251 CNS): > 100 µM
- TGI (UACC-257 melanoma): > 100 µM
- TGI (UACC-62 melanoma): > 100 µM
- TGI (UO-31 renal): > 100 µM
